According to patent US20100266712A1, “Prevention of Acute Kidney Injury” (Austin Health, priority 2007, published 2010):

Key:
[1] = test system: high-risk cardiac surgical patients undergoing cardiopulmonary bypass
Protocol: (§1) Body weight adjusted dose of study medication was achieved by infusion of 154 mEq/L of sodium bicarbonate (Pfizer, Bentley, WA, Australia) or sodium chloride (Astra Zeneca, North Ryde, NSW, Australia) diluted in 5% dextrose (Baxter, Sydney, NSW, Australia) and H2O at an infusion rate of 3 mL kg^−1 h^−1 for 1 hour immediately after the induction of anesthesia, prior to the first surgical incision followed by continuous infusion at an infusion rate of 1 mL kg^−1 n^−1 over 23 hours. Sodium bicarbonate or sodium chloride was administered at a dose of 0.45 mEq/kg body weight over 1 hour followed by continuous intravenous infusion of 0.15 mEq/kg/hr over 23 hours (total dose of 4 mEq/kg over 24 hours).
Additional secondary outcomes included changes in acid-base status, clinical outcomes such as need for renal replacement therapy, duration of ventilation, length of intensive care unit and hospital stay, and adverse events.
(§2) All data were analyzed according to the intention-to-treat principle. Continuous data were tested for normal distribution using histograms. Between-group comparisons for continuous data were performed with the use of the t test or the Mann-Whitney U test and for categorical data with the use of Fisher exact test or chi-square test where appropriate. All tests were 2-tailed and a P value <0.05 was taken to indicate statistical significance. Values were reported as means with standard error of the mean (SEM) and mean difference or odds ratio (OR) with 95% confidence interval (95% CI) estimate as appropriate.

[2] = test system: high-risk cardiac surgical patients undergoing cardiopulmonary bypass; remark: listed apart in the source
Protocol: as §1
Specific adverse events targeted for detection included the incidence of hypernatremia ([Na^+]>150 mEq/L), hypokalemia ([K^+]<3.5 mEq/L), alkalemia (pH>7.50), post-operative atrial fibrillation and other post-operative arrhythmias (supraventricular arrhythmias, ventricular tachycardia and ventricular fibrillation) during study treatment.
as §2

[3] = test system: high-risk cardiac surgical patients undergoing cardiopulmonary bypass; remark: listed apart in the source
Protocol: A double-blind, randomised, placebo controlled trial of the effect of sodium bicarbonate on postoperative renal function and oxidative stress in subjects undergoing elective cardiopulmonary bypass surgery was conducted.
The Human Research Ethics Committee of the Austin Hospital approved the trial and the Therapeutic Goods Administration of the Australian Government, Department of Health and Ageing approved the use of sodium bicarbonate for this indication. Written informed consent was obtained from each patient. Patients were identified in surgical pre-admission clinics and on hospital wards. Patients who were enrolled were at high risk of post-operative AKI and were scheduled for elective cardiac surgery necessitating the use of CPB at a university tertiary referral hospital (Austin Hospital) and a co-located large private hospital (Warringal Hospital). Those considered at high risk for post-operative AKI, defined as fulfilling one or more pre-defined inclusion criteria and no exclusion criteria, were considered eligible. Patients at particular risk of post-bypass renal injury were defined as having at least one of the following: (a) age >70; (b) preoperative creatinine […]; (c) New York Heart Association symptom severity class 3 or 4; (d) valve surgery; (e) insulin dependent diabetes mellitus; or (f) redo surgery.
as §1
The hospital pharmacy clinical trials coordinator used a Microsoft Excel-based (Microsoft Corp. Redmond, Wash., USA) random number generator to create the randomization list using a permuted block strategy with blocks of six. Infusion bags were each delivered in separate shrink-wrapped black plastic bags that were identical in appearance. Allocation concealment to patients, anesthesiologists, cardiac surgeons, intensive care specialists, bedside nurses and investigators (multiple blind) was ensured by central randomization through the Department of Pharmacy at the Austin Hospital.
The primary study outcome measure was the number of patients who developed post-operative acute kidney injury. This was defined as an increase in plasma creatinine concentration greater than 0.5 mg/dL (44 μmol/L) or greater than 25% from baseline to peak value at any time within the first five post-operative days. This definition is identical to that used in a recent large randomized controlled trial of cardiac surgery-associated AKI.
The renal secondary outcomes for this study were changes in plasma creatinine concentration within the first five post-operative days and in urinary neutrophil gelatinase-associated lipocalin (NGAL) concentration within the first 24 hours post-operatively. Creatinine was sampled daily and NGAL was sampled prior to induction of anesthesia, at 6 hours and at 24 hours after commencement of CPB. Creatinine was measured using the modified Jaffé method and NGAL as recently described (Mishra et al, 2005).
All data were analyzed according to the intention-to-treat principle. Continuous data were tested for normal distribution using histograms. Between-group comparisons for continuous data were performed with the use of the t test or the Mann-Whitney U test and for categorical data with the use of Fisher exact test or chi-square test where appropriate.

[4] = from before to 24 hours after commencement of study infusion, N = 50
[5] = sodium bicarbonate vs sodium chloride
[6] = sodium bicarbonate vs sodium chloride, P<0.001

Which results are given for `O=C([O-])O.[Na+]` [sodium bicarbonate]?
urine pH ([1]; 6 and 24 hours after commencement of study drug infusion, P<0.001 vs control, FIG. 1C): induced urinary alkalinization; Length of stay in hospital, mean (SEM) ([1]; N = 50, P=0.60): 10.4 (1.0) days; Length of ventilation, mean (SEM) ([1]; N = 50, P=0.83): 1657 (299) min; Length of stay in intensive care unit, mean (SEM) ([1]; N = 50, P=0.96): 73.8 (14.0) hrs; Hospital deaths ([1]; N = 50, P>0.99): 1 (2) no. (%); Renal replacement therapy ([1]; N = 50, P>0.99): 2 (4) no. (%); Change in plasma base excess, mean (SEM) [1, 4]: 3.8 (0.5); Change in plasma bicarbonate, mean (SEM) [1, 4]: 3.7 (0.5) mEq/L; Change in plasma pH, mean (SEM) [1, 4]: 0.04 (0.01); Length of stay in hospital, Mean Difference [1, 5]: -0.8 days; Length of stay in intensive care unit, Mean Difference [1, 5]: -1.0 h; Length of ventilation, Mean Difference [1, 5]: -99 min; Change in plasma base excess, Mean Difference [1, 6]: 6.0; Change in plasma bicarbonate, Mean Difference [1, 6]: 5.2 mEq/L; Change in plasma pH, Mean Difference [1, 6]: 0.07; patients with plasma sodium concentration >150 mEq/L (hypernatremia) ([2]; during study treatment, both groups): No patient; patients with an episode of supraventricular tachycardia ([2]; during study treatment, of 50 patients): One; patients with a pH level greater than 7.50 (alkalemia) ([2]; during study treatment, of 50 patients, P=0.24): three; incidence of new-onset atrial fibrillation ([2]; during treatment, patients/N, control 4/50, P>0.99): 5/50; patients with plasma potassium <3.5 mEq/L (hypokalemia) ([2]; patients/N, control 1/50, P=0.20): 5/50; increase in urinary NGAL concentration ([3]; baseline to peak within first 24 hours post-operatively, compared to sodium chloride, P=0.009, FIG. 1B): attenuated; relative increase in plasma creatinine ([3]; baseline to peak within first five post-operative days, mean ± SEM, P=0.01 vs sodium chloride): 28.5±6.5%; absolute increase in plasma creatinine concentration ([3]; compared to sodium chloride patients, P=0.01, FIG. 1A): less; patients with a plasma creatinine increase greater than 50% from baseline to peak value ([3]; patients/N, control 15/50): 8/50; patients who developed post-operative AKI ([3]; patients/N, plasma creatinine increase >0.5 mg/dL (44 μmol/L) or >25% from baseline to peak within first five post-operative days, 4 mEq/kg i.v. over 24 hours): 16/50; odds ratio for post-operative AKI ([3]; vs. sodium chloride control group (26/50), 95% CI 0.19-0.98, P=0.04): 0.43; odds ratio for plasma creatinine increase greater than 50% ([3]; vs. sodium chloride control, 95% CI 0.17-1.17, P=0.10): 0.44; absolute risk reduction for AKI ([3]; vs. sodium chloride control, 95% CI 1.1-39.0%): 20%
